According to patent US20220330549A1, “USE OF N-BENZYLBENZAMIDE-BASED COMPOUND AS HERBICIDE” (Northwest A&F University, priority 2020, published 2022):

Assays:
Format in all cases: in vivo
Humulus scandens [1] = assay: Herbicidal activity test for indoor pre-emergence soil treatment; conditions: 150 g a.i./ha, visual inspection 21 days after treatment
In short: (§1)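 Pre-emergence test following NY/T 1155.3-2006: weed seeds were sown in moistened neutral sandy loam (≤2% organic matter) and covered with 0.5–2.0 cm of soil. After 24 h, the soil was sprayed with a 10% EC diluted in water at 150 g(a.i.)/ha. Damage was scored visually on a 1–9 scale at 21 days.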

Broadleaf weed = assay: Post-emergence herbicidal activity test in a paddy field; conditions: 150 g a.i./ha (penoxsulam control 250 g(a.i.)/h)
In short: (§2)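 Efficacy was visually estimated 15 and 30 days after spraying, grading weed coverage relative to an untreated neighbouring plot (level 2 = 0 to 2.5%, level 9 = 67.6 to 100%). Treatments were 150 g(a.i.)/ha from 10% emulsifiable concentrates applied at the 4-5 leaf rice stage, four repeats of 50 m^2 each.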

Cyperaceae = assay: as above; conditions: 150 g a.i./ha (penoxsulam control 250 g(a.i.)/h)
In short: as §2

Gramineae = assay: as above; conditions: 150 g a.i./ha (penoxsulam control 250 g(a.i.)/h)
In short: as §2

Convolvulus arvensis = assay: Field test for weed control in a corn field
In short: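 Post-emergence herbicidal activity on Convolvulus arvensis was scored in a corn field on a 1-9 scale, based on symptoms and damage severity. Each level corresponds to the weed remaining as a percentage of the blank control area. Sprays of 10% emulsifiable concentrate at 150 g(a.i.)/ha went on at the corn 2–5 leaf stage, with four replicates of 20 m^2 per treatment.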

nutgrass flatsedge = assay: Field test for weed control in a corn field
In short: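 Herbicidal effect on nutgrass flatsedge was measured in a field planted with corn, using the GB/T 17980.42-2000 method. Emulsifiable concentrates (10%) in water were sprayed at 150 g(a.i.)/ha during the 2-leaf to 5-leaf corn stage, on 20 m^2 plots repeated 4 times. 25% mesotrione oil dispersion was the control agent. Activity was scored from 1 to 9 by weed remaining relative to blank control plots.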

Barnyard grass [2] = assay: Field test for weed control in a corn field
In short: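 Herbicidal activity against barnyard grass was assessed in corn field plots of 20 m^2, with four replicates per treatment. Compounds were applied as water-diluted 10% emulsifiable concentrates at 150 g(a.i.)/ha at the 2-5 leaf corn stage, with 25% mesotrione oil dispersion as the reference agent. Damage was scored on a 1-9 scale against untreated blank plots.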

Solanum nigrum = assay: Field test for weed control in a corn field
In short: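 In a corn field trial based on GB/T 17980.42-2000, 10% emulsifiable concentrates diluted in water were sprayed at 150 g(a.i.)/ha at the 2 to 5 leaf stage of corn. Each treatment used 20 m^2 plots and was repeated 4 times, with 25% mesotrione oil dispersion as the reference agent. Solanum nigrum damage was scored on a 1-9 scale against blank control plots.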

Digitaria sanguinalis [3] = assay: Field test for weed control in a corn field
In short: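 Field trial in a corn field following GB/T 17980.42-2000. Test compounds were formulated as 10% emulsifiable concentrates, diluted in water and sprayed post-emergence at 150 g(a.i.)/ha when corn had 2 to 5 leaves, with 4 replicates on 20 m^2 plots. Control of Digitaria sanguinalis was scored on a 1-9 scale based on weed damage relative to the untreated blank area.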

Amaranthus retroflexus [4] = assay: Field test for weed control in a corn field
In short: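 Post-emergence control of Amaranthus retroflexus was assessed in corn plots using the GB/T 17980.42-2000 method. Emulsifiable concentrates (10%) in water were applied by spraying at the 2- to 5-leaf crop stage on 20 m^2 plots, four replicates each, alongside a mesotrione 25% oil dispersion reference. Herbicidal activity was scored on 1-9 levels by weed amount relative to blank control areas.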

Portulaca oleracea = assay: Field test for weed control in a corn field
In short: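 Post-emergence weed control was evaluated in a corn field by the GB/T 17980.42-2000 method. Emulsifiable concentrates (10%) in water were applied as sprays at 150 g(a.i.)/ha at the 2-5 leaf corn stage, in four replicate 20 m^2 plots. A 25% mesotrione oil dispersion served as control agent. Effects were graded 1-9 relative to weed remaining in blank control areas.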

green bristlegrass [5] = assay: Field test for weed control in a corn field
In short: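 Herbicidal activity against green bristlegrass was assessed in corn field plots of 20 m^2 per GB/T 17980.42-2000. Test agents, formulated as 10% emulsifiable concentrates, were applied in water at 150 g(a.i.)/ha at the corn 2 leaves to 5 leaves stage, repeated 4 times. A 25% mesotrione oil dispersion served as the control agent, and weed damage was rated on levels 1-9.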

Chenopodium album = assay: Field test for weed control in a corn field
In short: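 Field weed-control testing in corn, run per GB/T 17980.42-2000, scored Chenopodium album on a 1-9 level scale, where each level matches a percentage range of weed remaining relative to the blank control area. Sprays of 10% emulsifiable concentrates in water delivered 150 g(a.i.)/ha at the corn 2-leaf to 5-leaf stage on 20 m^2 plots, four replicates each. Mesotrione 25% oil dispersion served as reference.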

goosegrass = assay: Field test for weed control in a corn field
In short: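 In this field trial in corn, run per GB/T 17980.42-2000, test agents prepared as 10% emulsifiable concentrates were applied in water as sprays at 150 g(a.i.)/ha at the 2- to 5-leaf corn stage. Each treatment covered 20 m^2 and was repeated 4 times. Goosegrass control was scored 1-9 relative to weed remaining in blank control areas.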

Acalypha australis = assay: Field test for weed control in a corn field
In short: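 Herbicidal activity against weeds was assessed in corn plots by the GB/T 17980.42-2000 method. Corn at the 2–5 leaf stage received water sprays of 10% emulsifiable concentrates at 150 g(a.i.)/ha, four repeats per treatment over 20 m^2. A 25% mesotrione oil dispersion was the reference. Damage symptoms and severity were rated on levels 1-9 relative to weeds in the blank control area.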

Barnyard grass [6] = assay: Herbicidal activity test for indoor post-emergence spraying on stems and leaves; conditions: 150 g a.i./ha, visual inspection 21 days after treatment
In short: (§3)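 Greenhouse-grown weeds, post-emergence foliar spray (NY/T 1155.4-2006 method); visual scoring at 21 d post-treatment as levels vs. untreated blank control (e.g., level 5 = 10.1–15%, level 8 = 35.1–67.5% of control weed).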

Digitaria sanguinalis [7] = assay: as above; conditions: 150 g a.i./ha, visual inspection 21 days after treatment
In short: as §3

Amaranthus retroflexus [8] = assay: as above; conditions: 150 g a.i./ha, visual inspection 21 days after treatment
In short: as §3

Humulus scandens [9] = assay: as above; conditions: 150 g a.i./ha, visual inspection 21 days after treatment
In short: as §3

green bristlegrass [10] = assay: as above; conditions: 150 g a.i./ha, visual inspection 21 days after treatment
In short: as §3

Piemarker [11] = assay: as above; conditions: 150 g a.i./ha, visual inspection 21 days after treatment
In short: as §3

Digitaria sanguinalis [12] = assay: Herbicidal activity test for indoor pre-emergence soil treatment; conditions: 150 g a.i./ha, visual inspection 21 days after treatment
In short: as §1

Amaranthus retroflexus [13] = assay: as above; conditions: 150 g a.i./ha, visual inspection 21 days after treatment
In short: as §1

Barnyard grass [14] = assay: as above; conditions: 150 g a.i./ha, visual inspection 21 days after treatment
In short: as §1

green bristlegrass [15] = assay: as above; conditions: 150 g a.i./ha, visual inspection 21 days after treatment
In short: as §1

Piemarker [16] = assay: as above; conditions: 150 g a.i./ha, visual inspection 21 days after treatment
In short: as §1

[17] = 150 g(a.i.)/ha, 21 days after treatments
[18] = 150 g a.i./ha, 30 days after treatment

Cc1cccc(CNC(=O)c2cccc(C)c2)c1 [Compound B14, 3-methyl-N-(3-methylbenzyl)benzamide]
Herbicidal Activity Humulus scandens (Humulus scandens [1]): 3 (equivalent to 2.6 to 5% of the weed in the blank control area) | Herbicidal activity 15 days after treatment Broadleaf weed (Broadleaf weed; 15 days after treatment): 1 | Herbicidal activity 30 days after treatment Broadleaf weed (Broadleaf weed; 30 days after treatment): 1 | Herbicidal activity 15 days after treatment Cyperaceae (Cyperaceae; 15 days after treatment): 1 | Herbicidal activity 30 days after treatment Cyperaceae (Cyperaceae; 30 days after treatment): 1 | Herbicidal activity 15 days after treatment Gramineae (Gramineae; 15 days after treatment): 1 | Herbicidal activity 30 days after treatment Gramineae (Gramineae; 30 days after treatment): 1 | Post-emergence weed control effect, Convolvulus arvensis (Convolvulus arvensis; 150 g a.i./ha, after treatment): 1 | controlling effect on Convolvulus arvensis (Convolvulus arvensis; [17]): 1 | Post-emergence weed control effect, Nutgrass flatsedge (nutgrass flatsedge; 150 g a.i./ha, after treatment): 1 | controlling effect on nutgrass flatsedge (nutgrass flatsedge; [17]): 1 | Post-emergence weed control effect, Barnyard grass (Barnyard grass [2]; [18]): 1 | controlling effect on barnyard grass (Barnyard grass [2]; [17]): 1 | Post-emergence weed control effect, Solanum nigrum (Solanum nigrum; [18]): 1 | controlling effect on Solanum nigrum (Solanum nigrum; [17]): 1 | Post-emergence weed control effect, Digitaria sanguinalis (Digitaria sanguinalis [3]; 150 g a.i./ha, after treatment): 1 | controlling effect on Digitaria sanguinalis (Digitaria sanguinalis [3]; [17]): 1 | Post-emergence weed control effect, Amaranthus retroflexus (Amaranthus retroflexus [4]; [18]): 1 | controlling effect on Amaranthus retroflexus (Amaranthus retroflexus [4]; [17]): 1 | Post-emergence weed control effect, Portulaca oleracea (Portulaca oleracea; 150 g a.i./ha, after treatment): 1 | controlling effect on Portulaca oleracea (Portulaca oleracea; [17]): 1 | Post-emergence weed control effect, Green bristlegrass (green bristlegrass [5]; 150 g a.i./ha, after treatment): 1 | controlling effect on green bristlegrass (green bristlegrass [5]; [17]): 1 | Post-emergence weed control effect, Chenopodium album (Chenopodium album; 150 g a.i./ha, after treatment): 1 | controlling effect on Chenopodium album (Chenopodium album; [17]): 1 | Post-emergence weed control effect, Goose grass (goosegrass; 150 g a.i./ha, after treatment): 1 | controlling effect on goosegrass (goosegrass; [17]): 1 | Post-emergence weed control effect, Acalypha australis (Acalypha australis; 150 g a.i./ha, after treatment): 1 | controlling effect on Acalypha australis (Acalypha australis; [17]): 1 | Herbicidal Activity Barnyard grass (Barnyard grass [6]): 1 | Herbicidal Activity Digitaria sanguinalis (Digitaria sanguinalis [7]): 1 | Herbicidal Activity Amaranthus retroflexus (Amaranthus retroflexus [8]): 1 | Herbicidal Activity Humulus scandens (Humulus scandens [9]): 1 | Herbicidal Activity Green bristlegrass (green bristlegrass [10]): 1 | Herbicidal Activity Piemarker (Piemarker [11]): 1 | Herbicidal Activity Digitaria sanguinalis (Digitaria sanguinalis [12]): 2 (equivalent to 0 to 2.5% of the weed in the blank control area) | Herbicidal Activity Amaranthus retroflexus (Amaranthus retroflexus [13]): 2 (equivalent to 0 to 2.5% of the weed in the blank control area) | Herbicidal Activity Barnyard grass (Barnyard grass [14]): 1 | Herbicidal Activity Green bristlegrass (green bristlegrass [15]): 1 | Herbicidal Activity Piemarker (Piemarker [16]): 1
